In brackets after ≈: the same amount, converted by molar mass.
Legend:
[1] = tested on: A549; experiment: Cytotoxicity against human A549 cells after 7 days by MTT assay; type: functional; details: A549, 168 h, read-out: ED50 (the source's name)
[2] = tested on: MCF7; experiment: Cytotoxicity against human MCF7 cells after 7 days by MTT assay; type: functional; details: MCF7, 168 h, read-out: ED50 (the source's name)
[3] = tested on: HT-29; experiment: Cytotoxicity against human HT-29 cells after 7 days by MTT assay; type: functional; details: HT-29, 168 h, read-out: ED50 (the source's name)
[4] = tested on: A498; experiment: Cytotoxicity against human A498 cells after 7 days by MTT assay; type: functional; details: A498, 168 h, read-out: ED50 (the source's name)
[5] = tested on: PC-3; experiment: Cytotoxicity against human PC3 cells after 7 days by MTT assay; type: functional
[6] = tested on: MIA PaCa-2; experiment: Cytotoxicity against human MIAPaCa2 cells after 7 days by MTT assay; type: functional
[7] = tested on: Artemia; experiment: Toxicity in brine shrimp; type: organism-based; details: in vivo

COc1cccc2c1C(=O)c1c(O)c3c(c(O)c1C2=O)C[C@@](O)(C(=O)CO)C[C@@H]3O[C@H]1C[C@H](N)[C@H](O)[C@H](C)O1 [DOXORUBICIN]
EC50 [1]: 0.00447 µg/mL (≈ 0.00822 µM) | EC50 [2]: 0.0897 µg/mL (≈ 0.165 µM) | EC50 [3]: 0.0162 µg/mL (≈ 0.0298 µM) | EC50 [4]: 0.0011 µg/mL (≈ 0.00202 µM) | EC50 ([5]; Homo sapiens, PC-3, 168 h, read-out: ED50 (the source's name)): 0.0213 µg/mL (≈ 0.0392 µM) | EC50 ([6]; Homo sapiens, MIA PaCa-2, 168 h, read-out: ED50 (the source's name)): 0.00288 µg/mL (≈ 0.0053 µM)

CCCCCCCCCC[C@@H]1O[C@H]([C@@H]2CC[C@H]([C@H](O)CCCCCCCCCC[C@@H](O)CC3=C[C@H](C)OC3=O)O2)CC[C@H]1O [JIMENEZIN]
Activity [7]: 5.7 ×10⁻³ ug/ml | EC50 [1]: 0.0164 µg/mL (≈ 0.0263 µM) | EC50 [2]: > 0.1 µg/mL | EC50 [3]: 0.00425 µg/mL (≈ 0.00682 µM) | EC50 [4]: 0.0494 µg/mL (≈ 0.0793 µM) | ED50 [5]: 2.77 ×10⁻⁴ ug/ml | ED50 [6]: 1.69 ×10⁻⁴ ug/ml

— ChEMBL document CHEMBL1158674, “Jimenezin, a Novel Annonaceous Acetogenin from the Seeds of Rollinia mucosa Containing Adjacent TetrahydrofuranTetrahydropyran Ring Systems ,1” (J Nat Prod, 1998)
